Experimental data as given in DBAASP.
≈ marks a conversion by molar mass, not a printed value.

Assays:
Test in all cases: ≥ marks a high value that may be exact or a test limit, other limits are often not marked, values filed in µg/mL are converted to µM
[1] = test system: Pseudomonas aeruginosa IFO 12582
[2] = test system: Escherichia coli IFO 12734
[3] = test system: Staphylococcus aureus IFO 12732
[4] = test system: Bacillus subtilis IFO 3143
[5] = test system: Escherichia coli KCTC 1682
[6] = test system: Aspergillus flavus KCTC 7375
[7] = test system: Staphylococcus aureus KCTC 1621
[8] = test system: Fusarium oxysporum KCTC 6084
[9] = test system: Bacillus subtilis KCTC 1918
[10] = test system: Candida albicans KCTC 7121
[11] = test system: Pseudomonas aeruginosa KCTC 1637
Proteus vulgaris = test system: Proteus vulgaris
[12] = test system: Trichosporon beigelii KCTC 7251
[13] = test system: Bacillus megaterium KCTC 1096
Staphylococcus aureus = test system: Staphylococcus aureus
Escherichia coli OP50 = test system: Escherichia coli OP50

Structure (SMILES): CC(C)C[C@H](NC(=O)[C@H](Cc1ccc(O)cc1)NC(=O)[C@H](Cc1cnc[nH]1)NC(=O)[C@@H](NC(=O)[C@H](CC(C)C)NC(=O)[C@H](C)NC(=O)[C@H](C)NC(=O)[C@H](CCCCN)NC(=O)CNC(=O)[C@@H](NC(=O)[C@H](Cc1cnc[nH]1)NC(=O)[C@H](CCCCN)NC(=O)CNC(=O)[C@@H](NC(=O)[C@H](Cc1cnc[nH]1)NC(=O)[C@H](C)NC(=O)[C@H](C)NC(=O)[C@H](CCCCN)NC(=O)[C@H](CCCCN)NC(=O)[C@H](Cc1ccccc1)NC(=O)[C@H](Cc1ccccc1)NC(=O)[C@H](CO)NC(=O)[C@H](C)NC(=O)[C@H](Cc1c[nH]c2ccccc12)NC(=O)[C@H](C)N)C(C)C)C(C)C)[C@@H](C)O)C(=O)O [AWASFFKKAAHVGKHVGKAALTHYL]
- MIC [1]: 23.4 µM (≈ 64 µg/mL)
- MIC [2]: 5.84 µM (≈ 16 µg/mL)
- MIC [3]: 2.92 µM (≈ 8 µg/mL)
- MIC [4]: 2.92 µM (≈ 8 µg/mL)

Structure (SMILES): CC[C@H](C)[C@H](NC(=O)[C@H](CCCCN)NC(=O)[C@H](CCCCN)NC(=O)[C@H](Cc1ccccc1)NC(=O)[C@H](CC(C)C)NC(=O)[C@H](CCCCN)NC(=O)[C@H](Cc1c[nH]c2ccccc12)NC(=O)[C@@H](N)CCCCN)C(=O)N[C@@H](CC(C)C)C(=O)N[C@@H](CCCCN)C(=O)N[C@@H](Cc1ccccc1)C(=O)N[C@@H](CC(C)C)C(=O)N[C@@H](Cc1cnc[nH]1)C(=O)N[C@@H](CC(C)C)C(=O)N[C@@H](C)C(=O)N[C@@H](CCCCN)C(=O)N[C@@H](CCCCN)C(=O)N[C@@H](Cc1ccccc1)C(N)=O [KWKLFKKILKFLHLAKKF]
- MIC [5]: 12.5 µM (≈ 29 µg/mL)
- MIC [6]: 25 µM (≈ 57.9 µg/mL)
- MIC [7]: 3.12 µM (≈ 7.24 µg/mL)
- MIC [8]: ≥ 50 µM
- MIC [9]: 1.56 µM (≈ 3.61 µg/mL)
- MIC [10]: 25 µM (≈ 57.9 µg/mL)
- MIC [11]: 3.12 µM (≈ 7.24 µg/mL)
- MIC (Proteus vulgaris): 6.25 µM (≈ 14.5 µg/mL)
- MIC [12]: 12.5 µM (≈ 29 µg/mL)
- MIC [13]: 1.56 µM (≈ 3.61 µg/mL)

Structure (SMILES): CC(C)[C@@H]1NC(=O)[C@@H]2CSSC[C@@H]3NC(=O)[C@H](CCCCN)NC(=O)CNC(=O)[C@H](CCC(=O)O)NC(=O)[C@H](CC(=O)O)NC(=O)[C@H]([C@@H](C)O)NC(=O)[C@@H]4CCCN4C(=O)[C@@H](NC(=O)CNC(=O)[C@H](Cc4ccc(O)cc4)NC(=O)[C@@H]4CCCN4C(=O)[C@H](CC(N)=O)NC(=O)[C@H](CCC(=O)O)NC(=O)[C@@H](N)Cc4ccc(O)cc4)CSSC[C@H](NC(=O)[C@H](Cc4ccc(O)cc4)NC(=O)CNC(=O)CNC(=O)[C@H](CCC(=O)O)NC(=O)[C@H](Cc4ccccc4)NC(=O)[C@H](CCC(=O)O)NC(=O)[C@H](CO)NC(=O)[C@H](CC(=O)O)NC(=O)[C@H](CC(N)=O)NC(=O)[C@H](CSSC[C@@H](C(=O)N[C@@H](Cc4ccc(O)cc4)C(=O)N[C@@H](CCCN=C(N)N)C(=O)N[C@H](C(=O)O)[C@@H](C)O)NC1=O)NC(=O)[C@H](CCCN=C(N)N)NC(=O)[C@H](CC(=O)O)NC(=O)[C@H](Cc1ccccc1)NC3=O)C(=O)NCC(=O)NCC(=O)N[C@@H](CO)C(=O)N[C@@H](Cc1ccc(O)cc1)C(=O)N[C@@H](CCCN=C(N)N)C(=O)N[C@@H](C)C(=O)N[C@@H]([C@@H](C)O)C(=O)N2 [YENPYGCPTDEGKCFDRCNDSEFEGGYCGGSYRATCVCYRT]
- MIC (Staphylococcus aureus): 7.5 µM (≈ 34.6 µg/mL)
- MIC (Escherichia coli OP50): 30 µM (≈ 138 µg/mL)
